“Also recorded” adds a separate entry of the source. Like-named read-outs stand apart in the source and are kept apart here.
Tests used:
[1] = target: T1, UMP kinase from B. subtilis (Bacillus subtilis, UniProt O31749); assay: UMP kinase activity, coupled spectrophotometric assay; type: biochemical
T1 sequence (O31749 1-240): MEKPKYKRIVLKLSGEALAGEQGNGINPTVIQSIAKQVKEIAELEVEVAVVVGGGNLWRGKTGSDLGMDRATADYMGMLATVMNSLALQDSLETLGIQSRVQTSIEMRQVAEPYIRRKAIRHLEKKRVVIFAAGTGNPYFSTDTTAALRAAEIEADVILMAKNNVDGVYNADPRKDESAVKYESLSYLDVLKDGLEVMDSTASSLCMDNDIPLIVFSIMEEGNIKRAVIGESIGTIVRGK
Description: Purification of UMP kinase and activity assays. E. coli overproducing the UMP kinase from B. subtilis was disrupted by sonication in 50 mM Tris-HCl (pH 7.4) and 2 mM UTP. The bacterial extract was heated for 10 min at 65° C., then the precipitated proteins were removed by centrifugation at 10,000 g for 30 min. The supernatant was concentrated by ultrafiltration to about 10 mg of protein/ml, then applied to a Sephacryl S-300 HR column (2.5×110 cm) equilibrated with 50 mM Tris-HCl (pH 7.4), 0.1 M NaCl and 2 mM UTP at a flow rate of 10 ml/h. […] Fractions of 1 ml of protein solution were sampled in Eppendorf tubes and stored at different temperatures between 20° C. and −80° C. The UMP kinase activity was determined at 30° C. using a coupled spectrophotometric assay (0.5 ml final volume) on an Eppendorf PCP6121 photometer [Blondin, 1994 #977]. The “standard” reaction medium contained 50 mM Tris-HCl (pH 7.4), 50 mM KCl, 2 mM MgCl2, 1 mM phosphoenolpyruvate, 0.2 mM NADH, 2 mM ATP, 0.5 mM GTP and 2 units each of lactate dehydrogenase, pyruvate kinase and NDP kinase. The crude or pure preparation of UMP kinase was then added, followed two minutes later by 1.3 mM UMP. The decrease in absorbance at 334 nm (between 0.03 and 0.3/min) was then recorded and corrected for secondary reactions, occurring in the absence of UMP. One unit of UMP kinase corresponds to 1 μmol of product formed per min.
The UMP kinase activity was determined at 30° C. using a coupled spectrophotometric assay (0.5 ml final volume) on an Eppendorf PCP6121 photometer. The “standard” reaction medium contained 50 mM Tris-HCl (pH 7.4), 50 mM KCl, 2 mM MgCl2, 1 mM phosphoenolpyruvate, 0.2 mM NADH, 1 or 2 mM ATP, 0.5 mM GTP and 2 units each of lactate dehydrogenase, pyruvate kinase and NDP kinase. The pure preparation of UMP kinase was then added, followed by 0.3 or 1 mM UMP. The decrease in absorbance at 334 nm (between 0.03 and 0.3/min) was then recorded and corrected for secondary reactions occurring in the absence of UMP. One unit of UMP kinase corresponds to 1 μmol of product formed per min.

[2] = target: T1, UMP kinase from B. subtilis; details: for stabilization of UMP kinase activity on storage (in words): crude bacterial extract, UTP ≧2 mM, ATP and GTP 2 mM each, various temperatures
E. coli UMP kinase [3] = target: E. coli UMP kinase (Escherichia coli, UniProt P0A7E9); details: cited from earlier work
[4] = target: UMP kinase from H. influenzae (Haemophilus influenzae, UniProt P43890); assay: UMP kinase activity, coupled spectrophotometric assay; type: biochemical
Description: The UMP kinase activity was determined at 30° C. using a coupled spectrophotometric assay (0.5 ml final volume) on an Eppendorf PCP6121 photometer. The “standard” reaction medium contained 50 mM Tris-HCl (pH 7.4), 50 mM KCl, 2 mM MgCl2, 1 mM phosphoenolpyruvate, 0.2 mM NADH, 1 or 2 mM ATP, 0.5 mM GTP and 2 units each of lactate dehydrogenase, pyruvate kinase and NDP kinase. The pure preparation of UMP kinase was then added, followed by 0.3 or 1 mM UMP. The decrease in absorbance at 334 nm (between 0.03 and 0.3/min) was then recorded and corrected for secondary reactions occurring in the absence of UMP. One unit of UMP kinase corresponds to 1 μmol of product formed per min. The specific activities of the recombinant enzymes are the following: […]

[5] = target: T2, UMP kinase from M. tuberculosis (Mycobacterium tuberculosis, UniProt P9WHK5); type: biochemical
[6] = target: T2, UMP kinase from M. tuberculosis; details: in the presence of UTP
[7] = target: T1, UMP kinase from B. subtilis; assay: Thermal stability of UMP kinase (FIG. 1)
Description: UMP kinase from B. subtilis overproduced in strain BL21 (DE3)/pDIA17 (over 30% of total E. coli proteins) was recovered in the supernatant after cell breakage in 50 mM Tris-HCl (pH 7.4) and centrifugation. The activity of recombinant UMP kinase declined rapidly upon storage at either room temperature, +4° C. or under frozen state. After 24 h, only 15% of initial UMP kinase activity was recovered. EDTA, thiols, bovine serum albumin, or antiprotease compounds alone or in mixture were ineffective. […] UTP increased the thermal stability of bacterial UMP kinase (FIG. 1), the half maximal inactivation being shifted from 42° C. in the absence of UTP to over 70° C. in the presence of nucleotide.

E. coli UMP kinase [8] = target: T3, E. coli UMP kinase (Escherichia coli, UniProt P0A7E9); assay: UMP kinase activity and activation by guanine nucleotides (comparison enzyme); type: biochemical; details: under identical conditions (presence of GTP)
T3 sequence (P0A7E9 whole entry, looked up): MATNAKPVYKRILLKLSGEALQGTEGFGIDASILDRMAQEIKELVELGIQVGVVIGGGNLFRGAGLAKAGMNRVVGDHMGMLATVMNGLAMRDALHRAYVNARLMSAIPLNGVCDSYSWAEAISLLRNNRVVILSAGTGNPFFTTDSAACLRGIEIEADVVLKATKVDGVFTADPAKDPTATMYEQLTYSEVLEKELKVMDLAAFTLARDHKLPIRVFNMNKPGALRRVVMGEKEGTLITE

UMP kinase from H. influenzae, sequence (P43890 whole entry): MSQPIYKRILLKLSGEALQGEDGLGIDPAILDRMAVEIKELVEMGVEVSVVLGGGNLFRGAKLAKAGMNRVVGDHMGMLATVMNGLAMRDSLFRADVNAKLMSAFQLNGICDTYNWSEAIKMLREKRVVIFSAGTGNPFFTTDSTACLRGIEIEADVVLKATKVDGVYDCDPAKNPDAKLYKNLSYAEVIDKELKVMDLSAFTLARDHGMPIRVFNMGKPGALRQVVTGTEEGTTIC
T2 sequence (P9WHK5 whole entry): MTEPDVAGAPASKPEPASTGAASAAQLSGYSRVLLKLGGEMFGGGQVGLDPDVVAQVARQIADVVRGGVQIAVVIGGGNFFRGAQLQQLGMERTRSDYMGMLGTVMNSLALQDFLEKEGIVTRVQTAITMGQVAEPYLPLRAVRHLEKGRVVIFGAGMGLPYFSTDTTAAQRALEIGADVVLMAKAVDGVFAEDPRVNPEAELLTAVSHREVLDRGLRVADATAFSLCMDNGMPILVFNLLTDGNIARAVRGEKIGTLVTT

`Nc1ncnc2c1ncn2[C@@H]1O[C@H](COP(=O)(O)OP(=O)(O)OP(=O)(O)O)[C@@H](O)[C@H]1O` [ATP] showed a Km ([1]; ATP varied, absence or presence of GTP (0.5 mM), UMP 1 mM, read-out: apparent Km for ATP) of 900 µM.

With `O=C(O)CN(CCN(CC(=O)O)CC(=O)O)CC(=O)O` [EDTA] the “stabilization of UMP kinase activity on storage (in words)” value (“stabilization of UMP kinase activity” for short) [2] was “ineffective”.

With `Nc1nc2c(ncn2[C@@H]2O[C@H](COP(=O)(O)OP(=O)(O)NP(=O)(O)O)[C@@H](O)[C@H]2O)c(=O)[nH]1` [GMP-PNP] the “activation of UMP kinase by guanine nucleotides (in words)” value (“activation of UMP kinase … (in words)” for short) [1] was “can activate at significant rates”.

In the case of `Nc1nc2c(ncn2[C@@H]2O[C@H](COP(=O)(O)O)[C@@H](O)[C@H]2O)c(=O)[nH]1` [GMP], the “activation of UMP kinase … (in words)” value [1] is given as “totally ineffective; also recorded: insensitive” and the “activation of E. coli UMP kinase (in words)” value (E. coli UMP kinase [3]) is given as “significant activation; also recorded: activated”.

With `Nc1nc2c(ncn2[C@@H]2O[C@H](COP(=O)(O)OP(=O)(O)OP(=O)(O)O)[C@@H](O)[C@H]2O)c(=O)[nH]1` [GTP] the “activation of UMP kinase (fold)” value ([1]; 2 mM ATP and 1 mM UTP) was “ten fold activation”, the EC50 ([1]; 2 mM ATP and 1 mM UTP, read-out: half maximum activation concentration) was 100 µM and the “activity of UMP kinase in the absence of GTP relative to presence” value ([1]; absence of GTP) was “twenty times lower”. For the same molecule, the “degree of activation by GTP (factor)” value [4] was 3 and the “degree of activation by GTP (factor)” value [5] was 2.

For `O=c1ccn([C@@H]2O[C@H](COP(=O)(O)O)[C@@H](O)[C@H]2O)c(=O)[nH]1` [UMP], the “UMP concentration at which rates were maximal” value ([1]; absence of GTP, ATP 1 mM, rates decline at higher UMP) was 50 to 70 µM, the Km ([1]; absence of GTP, ATP constant (1 mM), read-out: Km for UMP) was ~8 µM and the “UMP concentration at which saturation was attained” value ([1]; presence of GTP, ATP 1 mM) was 0.2 mM.

For `O=c1ccn([C@@H]2O[C@H](COP(=O)(O)OP(=O)(O)OP(=O)(O)O)[C@@H](O)[C@H]2O)c(=O)[nH]1` [UTP], the “effect of UTP on UMP kinase activity (in words)” value [1] was “antagonized the effect of GTP; also recorded: inhibits”, the IC50 ([1]; at lower concentration of UMP (50 μM), read-out: I50 of UTP inhibition) was 50 µM and the Km ([1]; presence of GTP, ATP 1 mM, without inhibition by excess of UMP, read-out: apparent Km for UTP) was 30 µM. The Tm [6] was 67 °C, the “half maximal inactivation temperature” value ([7]; in the presence of UTP) was “over 70 °C” and the “stabilization of UMP kinase activity” value [2] was “stabilized considerably”.

For `Nc1nc2c(ncn2[C@@H]2O[C@@H]3COP(=O)(O)O[C@H]3[C@H]2O)c(=O)[nH]1` [cGMP], the “activation of E. coli UMP kinase (in words)” value (E. coli UMP kinase [3]) is listed as “significant activation”, the “best activator (in words)” value [4] is listed as “highest activation and affinity” and the “nucleotide concentration at which maximal activation is attained” value [4] is listed as 20 µM.

With `Nc1ncnc2c1ncn2[C@H]1C[C@H](O)[C@@H](COP(=O)(O)OP(=O)(O)OP(=O)(O)O)O1` [dATP] the phosphate donor ability ([1]; compared with ATP) was “as good as ATP as phosphate donor”.

For `Nc1nc2c(ncn2[C@H]2C[C@H](O)[C@@H](COP(=O)(O)OP(=O)(O)OP(=O)(O)O)O2)c(=O)[nH]1` [dGTP], the “activation of UMP kinase … (in words)” value [1] was “effective but with lower affinities and extent of activation; also recorded: can activate at significant rates”.

For `Nc1nc2c(ncn2[C@@H]2O[C@H](CO)[C@@H](O)[C@H]2O)c(=O)[nH]1` [guanosine], the “activation of E. coli UMP kinase (in words)” value (E. coli UMP kinase [3]) is given as “significant activation”.

For “bovine serum albumin: protein additive tested as stabilizer”, the “stabilization of UMP kinase activity” value [2] was “ineffective”.

B1: UMP kinase from E. coli: comparison enzyme, bacterial UMP kinase from E. coli (protein, UniProt P0A7E9 2-241, looked up)
Uridylate kinase: ATNAKPVYKRILLKLSGEALQGTEGFGIDASILDRMAQEIKELVELGIQVGVVIGGGNLFRGAGLAKAGMNRVVGDHMGMLATVMNGLAMRDALHRAYVNARLMSAIPLNGVCDSYSWAEAISLLRNNRVVILSAGTGNPFFTTDSAACLRGIEIEADVVLKATKVDGVFTADPAKDPTATMYEQLTYSEVLEKELKVMDLAAFTLARDHKLPIRVFNMNKPGALRRVVMGEKEGTLITE
With B1 the specific activity (E. coli UMP kinase [8]) was 150 μmol/min^−1/mg of protein^−1.

B2: UMP kinase from B. subtilis: recombinant pyrH gene product of B. subtilis overproduced in E. coli, hexamer (protein)
chain: T1 sequence (O31749 1-240)
For B2, the “specific activity of the recombinant enzyme” value ([1]; 2 mM ATP, 1 mM UMP) was 25 units/mg of protein, the “specific activity of purified recombinant protein” value ([1]; "standard" assay conditions) was 26 U/mg of protein and the “specific activity of the purified enzyme” value ([1]; in the presence of GTP) was 25 μmol/min^−1/mg of protein^−1. The “half maximal inactivation temperature” value ([7]; in the absence of UTP) was 42 °C, the “initial UMP kinase activity recovered after storage” value ([2]; after 24 h, crude extract without UTP, room temperature, +4° C. or frozen) was 15% and the “stability in the absence of UTP (in words)” value ([2]; irrespective of storage temperature (+4° C., −20° C. or −80° C.)) was “unstable in the absence of the nucleotide”.

Reference: patent US20020119506A1, “Genes encoding UMP kinase, methods for purifying UMP kinase and methods of characterizing UMP kinase” (INSTITUT PASTEUR, priority 2000, published 2002)
